From article PMC7764916, “The Cholinesterase Inhibitory Properties of Stephaniae Tetrandrae Radix” (Molecules, 2020)
Like-named read-outs stand apart in the source and are kept apart here.

Legend:
AChE [1] = molecular target: T1, AChE (Mus musculus, UniProt P21836); assay: Enzyme kinetic analysis of AChE inhibition (Lineweaver–Burk plots); assay type: biochemical; details: for type of AChE inhibition: Lineweaver–Burk plots; for Ki: estimated from Lineweaver–Burk plots, ATCh 0.040–0.625 mM
T1 construct: The AChE assay medium consisted of brain lysate (5 mg/mL) with testing drugs; from tissue; host or cells: mouse brain (Triton X-100 low-salt lysate)
T1 sequence (P21836 32-614): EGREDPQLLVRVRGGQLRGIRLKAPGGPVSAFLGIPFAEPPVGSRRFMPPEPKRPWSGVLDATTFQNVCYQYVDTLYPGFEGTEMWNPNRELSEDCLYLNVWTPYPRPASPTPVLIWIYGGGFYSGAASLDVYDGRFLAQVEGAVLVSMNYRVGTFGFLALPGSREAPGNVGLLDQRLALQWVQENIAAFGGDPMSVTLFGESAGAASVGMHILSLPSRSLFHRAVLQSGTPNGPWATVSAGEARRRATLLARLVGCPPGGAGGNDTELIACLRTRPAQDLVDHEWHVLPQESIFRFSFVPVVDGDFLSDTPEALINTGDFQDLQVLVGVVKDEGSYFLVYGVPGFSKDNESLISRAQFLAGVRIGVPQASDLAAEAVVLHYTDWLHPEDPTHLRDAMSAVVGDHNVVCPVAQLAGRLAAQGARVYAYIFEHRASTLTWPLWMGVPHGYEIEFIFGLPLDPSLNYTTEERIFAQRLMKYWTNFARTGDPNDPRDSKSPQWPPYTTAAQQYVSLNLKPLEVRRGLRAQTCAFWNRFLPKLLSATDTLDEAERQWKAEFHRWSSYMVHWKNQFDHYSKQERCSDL
Procedure: Figure 4 The enzyme kinetic analysis of AChE inhibition by fangchinoline and cyclanoline. Different doses of fangchinoline (0.5–5 μM) and cyclanoline (30–120 μM) were added to the AChE reaction system and preincubated at 37 °C with the brain lysate, followed by the addition of a range of doses of ATCh (0.040–0.625 mM). The inhibition constants Ki were estimated from the plots of the slope versus the concentration of tested drugs. Donepezil (25 nM) served as a positive control. The data are expressed as the mean ± SEM (standard error of mean) of three […] assays, each with triplicate samples.
The Michaelis constant (Km), maximum velocity (Vmax), and inhibitory constant (Ki) were used to evaluate the kinetics of fangchinoline and cyclanoline. Lineweaver–Burk plots were then plotted using initial velocities, from which the Km and Vmax values were calculated (the absolute values of horizontal and vertical intercepts were 1/Km and 1/Vmax, respectively). The slopes of reciprocal plots were then plotted against the doses of fangchinoline and cyclanoline, and Ki values were determined as the absolute value of the x-axis intercept. Donepezil was used as a positive control. All experiments were performed in triplicate.

AChE [2] = molecular target: T1, AChE; assay: biochemical
Procedure: The extracts and alkaloids of STR were tested for cholinesterase activity using a 96-well microtiter plate (Corning, NY, USA) with a final volume of 200 μL, according to the Ellman method. […] The mixture of brain lysate, Na2HPO4 buffer, and iso-OMPA solution was incubated at 37 °C for 10 min, and then the solutions of DNTB and ATCh were added.
Mouse serum (1: 50 v/v, diluted with precooled low-salt lysis buffer) was prepared for the BChE activity assay. The BChE assay medium consisted of the same composition as the AChE assay medium, except that the brain lysate and iso-OMPA were replaced with diluted serum solution and 0.1 μM BW284c51. The mixture of diluted serum, Na2HPO4 buffer, and BW284c51 solution was incubated at 37 °C for 10 min, and then the solutions of DNTB and ATCh were added. […] The concentration of DMSO in the reaction system of AChE/BChE assay was controlled at 0.5%. […] The protein concentrations were measured using the Bio-Rad Protein Assay kit (Hercules, CA, USA).

BChE = molecular target: T2, BChE (Mus musculus, UniProt Q03311); assay: BChE activity assay (Ellman method), mouse serum; assay type: biochemical; details: for BChE inhibitory activity (in words): Figure 3; for IC50: alkaloids, Figure 3B
T2 construct: the brain lysate and iso-OMPA were replaced with diluted serum solution and 0.1 μM BW284c51; from tissue; host or cells: mouse serum (diluted 1:50)
Procedure: Mouse serum (1: 50 v/v, diluted with precooled low-salt lysis buffer) was prepared for the BChE activity assay. The BChE assay medium consisted of the same composition as the AChE assay medium, except that the brain lysate and iso-OMPA were replaced with diluted serum solution and 0.1 μM BW284c51. The mixture of diluted serum, Na2HPO4 buffer, and BW284c51 solution was incubated at 37 °C for 10 min, and then the solutions of DNTB and ATCh were added. […] The concentration of DMSO in the reaction system of AChE/BChE assay was controlled at 0.5%. […] The AChE/BChE inhibitory activity of drugs was calculated as a percentage of the control absorbance value, AChE/BChE inhibition (%) = (1 − absorbance with inhibitor/absorbance without inhibitor) × 100%. […] The protein concentrations were measured using the Bio-Rad Protein Assay kit (Hercules, CA, USA).

[3] = alkaloids, Figure 3B, read-out: AChE IC50

T2 sequence (Q03311 30-603): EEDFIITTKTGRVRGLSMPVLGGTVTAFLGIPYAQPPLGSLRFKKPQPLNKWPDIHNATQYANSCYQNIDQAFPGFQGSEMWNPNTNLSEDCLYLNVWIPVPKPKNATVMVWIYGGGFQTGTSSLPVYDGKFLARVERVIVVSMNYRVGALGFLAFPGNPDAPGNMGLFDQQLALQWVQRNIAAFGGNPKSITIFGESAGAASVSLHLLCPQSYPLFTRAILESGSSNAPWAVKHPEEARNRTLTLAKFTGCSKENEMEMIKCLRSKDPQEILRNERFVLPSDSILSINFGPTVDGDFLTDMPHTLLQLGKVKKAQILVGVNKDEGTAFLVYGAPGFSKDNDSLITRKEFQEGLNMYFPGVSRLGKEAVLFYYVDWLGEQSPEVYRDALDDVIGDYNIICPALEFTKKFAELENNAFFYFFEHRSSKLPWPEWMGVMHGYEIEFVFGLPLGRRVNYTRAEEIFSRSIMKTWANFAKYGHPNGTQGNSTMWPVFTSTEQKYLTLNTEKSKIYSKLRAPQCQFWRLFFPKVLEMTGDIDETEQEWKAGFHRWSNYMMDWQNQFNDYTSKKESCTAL

Row | Compound | type of AChE inhibition (AChE [1]) | Ki (AChE [1]) | IC50 (AChE [2]; Figure 5A, ATCh 0.625 mM, read-out: AChE IC50 (single drug, synergy experiment)) | IC50 (AChE [2]; [3]) | BChE inhibitory activity (in words) (BChE) | AChE inhibitory activity (in words) (AChE [2]; Figure 3) | IC50 (BChE)
1 | COc1ccc2cc1Oc1ccc(cc1)C[C@H]1c3cc(c(OC)cc3CCN1C)Oc1c(O)c(OC)cc3c1[C@H](C2)N(C)CC3 [fangchinoline] | noncompetitive | 1.79 µM | 2.12 ± 0.16 µM | 2.58 ± 0.28 µM | no inhibitory activity on BChE | – | –
2 | COc1ccc2cc1Oc1ccc(cc1)C[C@H]1c3cc(c(OC)cc3CCN1C)Oc1c(OC)c(OC)cc3c1[C@H](C2)N(C)CC3 [tetrandrine] | – | – | – | – | no or little inhibitory activity on BChE | no inhibitory activity on AChE at the maximal dissolvable concentration | –
3 | COc1cc2c(cc1O)[C@@H]1Cc3ccc(OC)c(O)c3C[N@+]1(C)CC2 [cyclanoline] | noncompetitive | 72.3 µM | – | 106 ± 2.29 µM | – | – | 247 ± 5.46 µM
4 | COc1ccc2c3c1O[C@H]1C[C@@H](O)C=C[C@@]31CCN(C)C2 [Galanthamine, galanthamine, reference compound] | – | – | – | – | – | – | 49.8 ± 2.5 µM
